How the values were obtained:
[1] = mice; IV push
[2] = Plasma, tumor and tissue pharmacokinetic disposition of CKD-602 after single IV administration in mice bearing A375 tumors; assay type: in vivo
From the text: The objectives of the study were to evaluate the plasma, tumor, and tissue disposition of CKD-602 after a single intravenous (IV) administration of liposomes entrapped with CKD-602 and having an outer surface coating of methoxypolyethylene glycol (S-CKD602) and non-liposomal CKD-602 in female SCID mice bearing A375 human melanoma xenografts. New sample processing methods were developed to evaluate the encapsulated and released CKD-602 in plasma after administration of S-CKD602. Microdialysis methodology was used to evaluate the release of CKD-602 from S-CKD602 in tumor ECF.
Mice. All mice were handled in accordance with the Guide to the Care and Use of Laboratory Animals (National Research Council, 1996), and studies were approved by the Institutional Animal Care and Use Committee at the University of Pittsburgh Medical Center. Mice (female C.B-17 SCID,4-6 weeks of age, and specific pathogen free), were obtained from Taconic (Hudson, N.Y.), and were allowed to acclimate to the animal facilities at the University of Pittsburgh for 1 week prior to initiation of study. Mice were housed in microisolator cages and allowed ISDPRO autoclavable rodent chow (PMI Nutrition International, Inc., Brentwood, Mo.) and mice received water ad libitum. Body weights and tumor size were measured twice weekly and clinical observations were made twice daily.
Tumor Lines. A375 human melanoma xenografts were obtained from the DCTD Tumor Repository (Fredrick, Md.) and were mouse antigen production test-negative. A375 tumors were expanded in culture and injected (1×10^7 cells/mouse) subcutaneously into passage mice. The A375 tumors were harvested when they were 1 to 2 g and were implanted as approximately 25-mg fragments subcutaneously on the fight flank of SCID mice by aseptic techniques. […] Pharmacokinetic and microdialysis studies were performed when the tumors were approximately 1000 to 1500 mm^3 (1 to 1.5 g) in size.
Formulation and Administration. S-CKD602 is a pegylated liposomal formulation of CKD-602. The clinical formulation of S-CKD602 was used in this study (Alza Corp., Mountain View Calif.) (Zamboni et al., Final results of a phase I and pharmacokinetic study of STEALTH liposomal CKD-602 (S-CKD602) in subjects with advanced solid tumors. Proceedings of ASCO […];82s:2006). Approximately 80% of the lipid in S-CKD602 liposome is fully hydrogenated soy phosphatidylcholine and cholesterol. In addition, methoxypolyethylene glycol is covalently bound to phosphatidylethanolamine and a component of the lipid bilayer. The mean particle size of the S-CKD602 was approximately 110 nm. CKD-602 is encapsulated in the core of the liposome with an encapsulation efficiency of greater than 90%. The drug-to-lipid ratio of S-CKD602 is approximately […] CKD-602 per milligram of lipid. In the S-CKD602 formulation, the CKD-602 concentration was 0.1 mg/mL. The doses of S-CKD602 refer to actual doses of CKD-602. S-CKD602 was administered at 1 mg/kg IV push via a tail vein over approximately 1 min. This dose is one-half the maximum tolerated dose (MTD) in mice. The dose of S-CKD602 administered was based on the maximum volume of drug allowed to be administered IV by the study's IACUC.
Non-liposomal CKD602 was administered at 30 mg/kg IV push via the tail vein. This dose is approximately the MTD for a single dose of non-liposomal CKD-602 in mice. Non-liposomal CKD-602 was prepared at 3 mg/mL in 270 mM mannitol and 0.4 mM tartaric acid in a 5% dextrose solution at pH 3.6. The vehicle control for S-CKD602 and non-liposomal CKD-602 was 0.9% NaCI and 270 mM mannitol and 0.4 mM tartaric acid in a 5% dextrose solution at pH 3.6, respectively.
Pharmacokinetic Studies. Due to limited sample volume, the pharmacokinetic and microdialysis studies were performed in separate groups of mice. Pharmacokinetic studies of S-CKD602 were performed after administration of vehicle, and at 5 min, 0.25, 0.5, 1, 2, 4, 7, 16, 24, 48, and 72 h after administration. […]

[3] = Microdialysis study of tumor ECF disposition of CKD-602
Protocol: At all other microdialysis sample intervals, probe recovery was estimated using camptothecin as a tracer agent.
The HPLC system consisted of a Finnigan Specta Systems AS3000 autosampler and P4000 quarternary pump (Thermo Finnigan, Waltham, Mass.) with a Phenomenex Synergi Hydro-RP 80A (4 um, 100×2 mm) analytical column (Phenomenex, Torrance, Calif.). The isocratic mobile phase consisted of 0.1% formic acid in methanol:water (35:85, v/v) and was pumped at 0.2 mL/min. Injection volume was 10 pL and the run time was 10 min. […] The insert probe temperature was set at 400° C. with 3 kV ion spray voltage and 20 V orifice voltage. Nitrogen gas flow was fixed at 75 p.s.i. at the tank head unit. The system was operated with ThermoFinnigan Xcaliber software.

[4] = brain, single IV dose (S-CKD602 1 mg/kg; non-liposomal 30 mg/kg)
[5] = fat, single IV dose (S-CKD602 1 mg/kg; non-liposomal 30 mg/kg)
[6] = kidney, single IV dose (S-CKD602 1 mg/kg; non-liposomal 30 mg/kg)
[7] = liver, single IV dose (S-CKD602 1 mg/kg; non-liposomal 30 mg/kg)
[8] = muscle, single IV dose (S-CKD602 1 mg/kg; non-liposomal 30 mg/kg)
[9] = plasma, single IV dose (S-CKD602 1 mg/kg; non-liposomal 30 mg/kg)
[10] = spleen, single IV dose (S-CKD602 1 mg/kg; non-liposomal 30 mg/kg)
[11] = tumor, single IV dose (S-CKD602 1 mg/kg; non-liposomal 30 mg/kg)
[12] = tumor ECF by microdialysis, S-CKD602 (1 mg/kg), Non-Liposomal CKD-602 (30 mg/kg) IV

CC[C@@]1(O)C(=O)OCc2c1cc1n(c2=O)Cc2c-1nc1ccccc1c2CCNC(C)C [Non-Liposomal CKD-602]
MTD for a single dose [1]: ~30 mg/kg
AUC, sum total CKD-602, Brain [2, 4]: 849 ng·h/mL
Cmax, sum total CKD-602, Brain [2, 4]: 572 ng/mL
Tlast, sum total CKD-602, Brain [2, 4]: 7 h
Tmax, sum total CKD-602, Brain [2, 4]: 4.8 min
Cmax, sum total CKD-602, Fat [2, 5]: 7,321 ng/mL
Tlast, sum total CKD-602, Fat [2, 5]: 24 h
Tmax, sum total CKD-602, Fat [2, 5]: 15 min
AUC, sum total CKD-602, Kidney [2, 6]: 56,267 ng/mL · h
Cmax, sum total CKD-602, Kidney [2, 6]: 68,497 ng/mL
Tlast, sum total CKD-602, Kidney [2, 6]: 24 h
Tmax, sum total CKD-602, Kidney [2, 6]: 4.8 min
AUC, sum total CKD-602, Liver [2, 7]: 68,620 ng/mL · h
Cmax, sum total CKD-602, Liver [2, 7]: 69,000 ng/mL
Tlast, sum total CKD-602, Liver [2, 7]: 16 h
Tmax, sum total CKD-602, Liver [2, 7]: 240 min
Cmax, sum total CKD-602, Muscle [2, 8]: 12,383 ng/mL
Tlast, sum total CKD-602, Muscle [2, 8]: 24 h
Tmax, sum total CKD-602, Muscle [2, 8]: 4.8 min
overall distribution in muscle compared with fat ([2]; non-liposomal CKD-602 30 mg/kg IV, muscle vs fat): 3 fold
AUC, sum total CKD-602, Fat ([2]; peritoneal cavity fat, single IV dose (S-CKD602 1 mg/kg; non-liposomal 30 mg/kg)): 8,280 ng/mL · h
Plasma Sum Total AUC(0-inf) ([2]; plasma, S-CKD602 (1 mg/kg), Non-Liposomal CKD-602 (30 mg/kg) IV): 9,117 ng/mL · h
Tlast, sum total CKD-602, Plasma ([2]; plasma, last detectable time, single IV dose (S-CKD602 1 mg/kg; non-liposomal 30 mg/kg)): 16 h
Cmax, sum total CKD-602, Plasma [2, 9]: 6,959 ng/mL
Tmax, sum total CKD-602, Plasma [2, 9]: 4.8 min
Tmax, sum total CKD-602, Plasma ([2]; plasma, single IV dose (S-CKD602 1 mg/kg; non-liposomal 30 mg/kg), listed as non-liposomal CKD-602): 4.98 min
AUC, sum total CKD-602, Plasma ([2]; plasma, single IV dose (S-CKD602 1 mg/kg; non-liposomal CKD-602 30 mg/kg)): 9,117 ng/mL · h
AUC, sum total CKD-602, Muscle ([2]; skeletal muscle, single IV dose (S-CKD602 1 mg/kg; non-liposomal 30 mg/kg)): 24,485 ng/mL · h
AUC, sum total CKD-602, Spleen [2, 10]: 23,124 ng/mL · h
Cmax, sum total CKD-602, Spleen [2, 10]: 14,724 ng/mL
Tlast, sum total CKD-602, Spleen [2, 10]: 24 h
Tmax, sum total CKD-602, Spleen [2, 10]: 15 min
tissues with the highest exposures of CKD-602 ([2]; sum total CKD-602 in tissues): liver and kidney
Tumor Sum Total(0-inf) ([2]; tumor homogenate AUC, S-CKD602 (1 mg/kg), Non-Liposomal CKD-602 (30 mg/kg) IV): 11,661 ng/mL · h
Cmax, sum total CKD-602, Tumor [2, 11]: 3,688 ng/mL
Tlast, sum total CKD-602, Tumor [2, 11]: 24 h
Tmax, sum total CKD-602, Tumor [2, 11]: 30 min
CKD-602 in tumor ECF detectable until ([3]; detectable from 10 min, microdialysis): 19.25 h
variation of CKD-602 concentration in tumor ECF at individual time points ([3]; during the collection intervals): 4- to 5 fold
Time >1 ng/mL In Tumor ECF [3, 12]: ˜20 h
Tumor ECF AUC(0-inf) [3, 12]: 639 ng·h/mL
